Laboratory results from patent publication US20090068286A1, “METHOD OF TREATING CANCER BY ADMINISTRATION OF 5-SUBSTITUTED NUCLEOSIDES” (RESprotect, GmbH, priority 2007, published 2009).

How the values were obtained:
[1] = Plasma concentrations of BVDU, BVU and GEM in patients of the dose finding study (HPLC); assay type: in vivo, human
Experimental: Dose finding study: 22 Patients with advanced pancreatic adenocarcinoma were eligible for treatment in this single arm study. The mean age was 60 years and 73% of patients were males. One patient without progressive disease was excluded from the study for withdrawal of consent after the first cycle. Of the 21 patients left, 15 were in stage IV and 6 in stage III. BVDU was administered in a combination with GEM. On day 1, on day 8 and on day 15 of each 28-day cycle, BVDU was given together with GEM. On days 2-4, on days 8-11, and on days 15-18 of a 28-day cycle, BVDU was given alone in the recovery phase.
The starting dose of BVDU was 4×125 mg/day (total dose of 6,000 mg per treatment cycle) together with a fixed dose of GEM (1,000 mg/M^2). Subsequent total doses of BVDU per cycle were 7,500 mg, 9,000 mg, 10,500 mg, and 12,000 mg again in four patients per cohort. Dosage levels were administered as follows: First dose level: The starting dose of BVDU was 4×125 mg daily given at approximately 08:00 a.m. (1×125 mg BVDU), 12:00 a.m. (1×125 mg BVDU), 04:00 p.m. (1×125 mg BVDU), and 08:00 p.m. (1×125 mg BVDU). These doses were administered on days 1 to 4, days 8 to 11 and days 15 to 18; Second dose level: 1×250 mg+3×125 mg daily; Third dose level. 2×250 mg+2×125 mg daily; Forth dose level: 3×250 mg+1×125 mg daily; and, Fifth dose level: 4×250 mg daily.
Approximately 1 hour after the 08:00 a.m. BVDU-administration on day 1, day 8 and day 15 of a cycle, the GEM infusion started and GEM was infused for 30 minutes.
Analysis of the concentrations of GEM and BVDU (BVDU) as well as analysis of the concentrations of BVU ((E)-5-(2-bromovinyl)uracil, degradation product of BVDU) in plasma samples: 0.5 ml of plasma spiked with about 0.5 μg of 4-Propyl-2-thiouracil (PTU) as internal standard was extracted with 2.5 ml of methanol-acetonitrile (v/v, 1:9) by vigorous mixing for about 1 min. After centrifugation the supernatant was transferred to a beaker and evaporated to dryness at 50° C. under a gentle stream of nitrogen. The residue was dissolved in 1 ml of the solution used as mobile phase by 10 min treatment in an ultrasonic bath. After centrifugation the clear supernatant was used for HPLC-analysis. The concentrations of GEM and BVDU were calculated using a calibration curve with the respective standard substances. The concentrations of BVU were calculated using the calibration curve of BVDU and the determined response factor. Limits of detection: BVDU 20 ng/ml plasma; GEM 30 ng/ml plasma. Limits of quantification: BVDU 60 ng/ml plasma; GEM 100 ng/ml plasma.
Pharmacokinetic Results BVDU: All measurements were performed within 9 hours. Therefore, only the first three intakes of BVDU-tablets were relevant in this context, and as consequence, in dose groups four and five the intake of tablets was identical. When the dose was doubled from 125 mg to 250 mg, the mean maximum BVDU concentration in plasma increased fivefold from 290 (±152) ng/ml to 1549 (±1058) ng/ml (FIG. 10).

[2] = test system: dimethybenzanthracene (DMBA) induced tumors; assay: Growth of DMBA-induced tumors in SD rats under DOX ± BVDU; assay type: in vivo, rat; conditions: DOX 1 mg/kg
Experimental: (§1) The reduction in toxic side effects of doxorubicin (DOX) was able to be shown in the test with rats (see Table 3). SD rats were treated with dimethybenzanthracene (DMBA). […] During the treatment and one day after each treatment, i.e. in the recovery phase, the animals obtained respectively 15 mg/kg BVDU. The recovery phase in vivo was 6× one day.

[3] = Animal weight of DOX ± BVDU treated rats (toxic side effects); assay type: in vivo, rat
Experimental: DT-D inactivates ROS and thus protects cells from non-specific ROS and electrophilic attacks. […] DOX treatment alone leads to weight losses because of the toxic side effects. It is certain that only the side effects (possibly the cardiotoxicity characteristic of DOX) are reduced by BVDU but not the toxic effects on the tumor.
as §1

[4] = test system: AH13r tumor cells; assay: Hoechst 33258/propidium iodide (Hopi) double coloration for apoptosis; assay type: cell-based, rat; conditions: cytostatic
Source text: The indication that the reduction in cell number is based on apoptosis, was detected by means of Hoechst 33258/propidium iodide (Hopi) double coloration.

[5] = test system: advanced pancreatic cancer; conditions: pivotal study, Glimelius et al. 1996; cited from earlier work
[6] = test system: pancreatic cancer; conditions: pancreatic cancer patients; cited from earlier work
[7] = DMBA-induced tumors, BVDU 15 mg/kg, average of 5-8 rats
[8] = SD rats, DOX 1 mg/kg, BVDU 15 mg/kg, average of 5-8 rats

For `O=c1[nH]cc(/C=C/Br)c(=O)[nH]1` [BVU, (E)-5-(2-bromovinyl)uracil], the “Mean maximum BVU concentration” value ([1]; lower end of the BVDU dose range ("from")) was 1525 (±1012) ng/ml and the “Mean maximum BVU concentration” value ([1]; upper end of the BVDU dose range ("to")) was 4637 (±1353) ng/ml.

With `COc1cccc2c1C(=O)c1c(O)c3c(c(O)c1C2=O)C[C@@](O)(C(=O)CO)C[C@@H]3O[C@H]1C[C@H](N)[C@H](O)[C@H](C)O1` [DOX, doxorubicin] the “Relative tumor size Day 1” value [2, 7] was 1, the “Relative tumor size Day 16” value [2, 7] was 1.5 and the “Growth of DMBA-induced tumors” value [2] was “inhibited in their growth”. For the same compound, the “Relative animal weight Day 1” value [3, 8] was 0, the “Relative animal weight Day 16” value [3, 8] was −7% and the “Animal weight change as index of toxic side effects” value ([3]; rat, in vivo) was “weight losses”. The “Apoptosis (HOPI double coloration)” value [4] was “initiate apoptosis”.

For `Nc1ccn([C@@H]2O[C@H](CO)[C@@H](O)C2(F)F)c(=O)n1` [GEM, gemcitabine], the “GEM maximum values with increase of the BVDU dose” value ([1]; BVDU 125 vs 250 mg, large variability between individual patients) is given as “appear to rise”, the “GEM detectability in plasma” value ([1]; at the second BVDU intake, 4 hours later) is given as “not detectable any more” and the Median survival [5] is given as “less than 6 months”. The Diarrhea [6] was 2%, the One-year survival [6] was 17% and the Overall survival [6] was 5.9 months. For the same compound, the Skin rash [6] was 1% and the Time to progression [6] was 3.55 months.

In the case of `CO[C@@]12[C@H](COC(N)=O)C3=C(C(=O)C(C)=C(N)C3=O)N1C[C@@H]1N[C@@H]12` [MMC, mitomycin C], the “Apoptosis (HOPI double coloration)” value [4] is reported as “initiate apoptosis”.

With `O=C1c2c(O)ccc(O)c2C(=O)c2c(NCCNCCO)ccc(NCCNCCO)c21` [MXA, mitoxantrone] the “Apoptosis (HOPI double coloration)” value [4] was “initiate apoptosis”.
